Entries after “also recorded” stand apart in the source; their conditions may differ. One block for each compound: values may come before it.
Columns and labels:
[1] = ESI-MS analysis of complex formation with copper salts; format: binding; details: for Percentage (binding percentage): DPM-1013:Cu = 1:8
Protocol: Eight equivalents of M(NO3)2·xH2O or MSO4·xH2O (M=Cu, Zn) were reacted with 1 eq. of DPM-1001 (1 mM in H2O). The reaction solutions were stirred at RT, 40° C. and 80° C. for 2 h. Mass spectra were recorded on a Bruker Esquire 6000 HCT quadrupole ion trap instrument (Bruker Daltonik GmbH, Leipzig, Germany), equipped with an electrospray ionization (ESI) source. Generation of the molecular formula of the DPM-1001/Cu(II) species and the comparison between the theoretical (simulated) and the measured isotopic patterns was performed using the DataAnalysis 4.0 software (Bruker).
(§1) Eight equivalents of M(NO3)2·xH2O or MSO4·xH2O were reacted with 1 eq. of DPM-1001, DPM-1003 or analog 2 (1 mM in H2O). The reaction solutions were stirred at RT, 40° C. and 80° C. for 2 h. Each sample was diluted 5-fold in 50% methanol, 0.1% formic acid and loaded into a 500 μL syringe. A Thermo Vantage triple quadrupole mass spectrometer (Thermo Scientific), equipped with an HESI spray source was coupled to an Accela HPLC system (Thermo Scientific). Mobile phase A consisted of 0.1% formic acid and mobile phase B consisted of 0.1% formic acid in methanol. Isocratic flow was set to 50% B at 200 μL/min. 200 μl samples were injected into the LC flow line via syringe pump at 10 μL/min and electrosprayed into the Vantage triple quadrupole mass spectrometer. A spray voltage of 4.3 kV was used along with a capillary temperature of 350° C. Each full MS scan was 0.5 s and data were collected with a scan range of 200 m/z to 900 m/z over 1 min.
Binding of compounds of Formula I other than DPM-1001 was also confirmed. In an ESI-MS test, compound DPM-1013 as hydrochloride salt was dissolved in distilled water at a concentration of 2 mM freshly before testing. It was then mixed with an equal volume copper sulfate (16 mM) or copper chloride solution (16 mM) for 2 h, rendering a concentration of DPM-1013 at 1 mM and the copper salt 8 mM. The mixture was then further diluted 100-fold before injection into an ESI-MS, making a final concentration of DPM-1013 of 10 μM and Cu 80 μM in the test.
Binding percentage=peak intensity of all DPM-1013-Cu complex/(peak intensity of all DPM-1013-Cu complex+peak intensity of free DPM-1013).

TX mice = experiment: Tissue and fecal copper levels (ICP-MS, rhodanine staining); format: in vivo, mouse
Protocol: C3He-Atp7b^tx-j were obtained from the Jackson laboratory. All animal experiments were performed according to protocols approved by the Institutional Animal Use and Care Committee of Cold Spring Harbor laboratory. Mice were injected intraperitoneally (i.p.) with vehicle, or administered DPM-1001 intraperitoneally or orally at 5 mg/kg once every third day, for over a year. At the end of the study animals were euthanized and tissue samples were removed for biochemical studies.
Tissue samples from wild-type or TX mice treated with saline, DPM-1001 or tetrathiomolybdate was washed three times with PBS containing 1 mM EDTA (to remove nonspecifically bound copper). Then, 215 μl of concentrated nitric acid (BDH Aristar Ultra) was added to each sample and incubated overnight. Samples were boiled at 95° C. for 1 h. and approximately 150 μl of each sample was further diluted in 2 ml 2% nitric acid (made freshly from concentrated nitric acid and Milli-Q water) Samples were analyzed on a Thermo Fisher iCAP Qc ICP mass spectrometer in kinetic energy discrimination (KED) mode against a calibration curve of known copper and phosphorus concentrations, with Ga (20 μg/l, Inorganic Ventures) as an internal standard, Each experiment was carried out twice and each condition was repeated in at least triplicate.
Liver tissues from wild-type and TX mice from untreated and DPM-1001-treated mice were sectioned and stained with H&E or rhodanine. Whole-slide, digitized images of H&E-stained tissue were captured using the Aperio ScanScope XT automated scanning system (Vista, CA). Image J software was used to quantitate rhodanine staining.

PTP1B-L192A/S372P = PTP1B-L192A/S372P (Homo sapiens, UniProt P18031, L192A/S372P); experiment: Phosphatase assay with MSI-1436-resistant mutant; format: biochemical
Sequence of PTP1B-L192A/S372P (P18031 whole entry L192A/S372P): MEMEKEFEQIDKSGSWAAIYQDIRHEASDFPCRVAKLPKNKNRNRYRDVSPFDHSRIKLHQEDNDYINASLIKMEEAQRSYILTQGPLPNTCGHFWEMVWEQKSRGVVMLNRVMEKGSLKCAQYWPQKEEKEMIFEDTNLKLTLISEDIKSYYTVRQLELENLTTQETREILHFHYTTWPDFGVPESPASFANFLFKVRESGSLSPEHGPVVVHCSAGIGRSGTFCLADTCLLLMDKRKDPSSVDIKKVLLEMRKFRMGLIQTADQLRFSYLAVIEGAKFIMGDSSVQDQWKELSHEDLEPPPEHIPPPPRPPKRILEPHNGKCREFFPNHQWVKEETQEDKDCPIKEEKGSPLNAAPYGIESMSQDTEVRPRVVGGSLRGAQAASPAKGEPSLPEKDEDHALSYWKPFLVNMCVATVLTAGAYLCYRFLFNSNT
Description: (§2) All common reagents were obtained from Thermo Fisher Scientific (Waltham, MA) or Sigma-Aldrich (St. Louis, MO). Difluoro-4-methylumbelliferyl phosphate (DiFMUP) was obtained from Invitrogen (cat #D22065). Solid black 384-well plates (cat #3573) for phosphatase assays were from Corning Incorporated (Corning, NY).

PTP1B1-321 = molecular target: T1, PTP1B1-321 (Homo sapiens, UniProt P18031); experiment: PTP1B phosphatase activity assay, short form; format: biochemical; details: enzyme-inhibitor complex diluted, activity recovery monitored
T1 construct: C-terminally truncated PTP1B (1-321); made in house; host or cells: Escherichia coli BL21 (DE3)-RIL
T1 sequence (P18031 1-321): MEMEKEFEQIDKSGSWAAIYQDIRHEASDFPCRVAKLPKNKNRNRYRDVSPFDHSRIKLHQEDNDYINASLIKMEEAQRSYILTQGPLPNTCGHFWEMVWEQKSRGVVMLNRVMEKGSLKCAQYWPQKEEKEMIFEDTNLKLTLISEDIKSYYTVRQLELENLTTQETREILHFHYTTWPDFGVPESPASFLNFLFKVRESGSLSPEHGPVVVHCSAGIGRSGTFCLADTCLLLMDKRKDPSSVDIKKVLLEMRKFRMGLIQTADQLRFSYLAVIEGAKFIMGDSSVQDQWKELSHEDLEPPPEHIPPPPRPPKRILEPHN
Protocol: as §2
(§3) Wild-type PTP1B containing a His-tag was expressed in Escherichia coli BL21 (DE3)-RIL using LB. Cells were resuspended in lysis buffer (50 mM Hepes pH 7.2, 150 mM NaCl, 10 mM imidazole, 2 mM TCEP) with cOmplete EDTA-free Protease Inhibitor Cocktail (Roche), and then lysed using a sonicator at 4° C. Lysates were clarified by centrifugation. Initial protein purification was by gravity flow, nickel column chromatography. Protein was used immediately or stored at −80° C. in 50 mM HEPES pH 7.4, 100 mM NaCl, 2 mM dithiothreitol and 25% glycerol.

PTP1B1-405 = molecular target: T2, PTP1B1-405 (Homo sapiens, UniProt P18031); experiment: PTP1B phosphatase activity assay, DiFMUP substrate, long form; format: biochemical
T2 construct: PTP1B1-405 (the long form of PTP1B which contains the extended C-terminal segment); made in house; host or cells: Escherichia coli BL21 (DE3)-RIL
T2 sequence (P18031 1-405): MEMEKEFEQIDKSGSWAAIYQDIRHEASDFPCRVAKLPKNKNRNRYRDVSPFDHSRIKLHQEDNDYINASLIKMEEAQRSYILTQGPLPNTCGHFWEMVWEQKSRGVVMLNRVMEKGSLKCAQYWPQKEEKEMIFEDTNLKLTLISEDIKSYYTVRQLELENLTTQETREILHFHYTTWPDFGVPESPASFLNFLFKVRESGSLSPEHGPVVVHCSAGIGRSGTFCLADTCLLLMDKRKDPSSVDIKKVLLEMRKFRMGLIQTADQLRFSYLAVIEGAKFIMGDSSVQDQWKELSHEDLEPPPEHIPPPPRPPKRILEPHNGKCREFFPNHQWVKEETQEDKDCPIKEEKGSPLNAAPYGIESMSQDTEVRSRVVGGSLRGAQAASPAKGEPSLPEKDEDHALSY
Protocol: as §2, §3

[2] = ESI-MS analysis of complex formation with a series of other metal ions; format: binding; details: panel of metals
Protocol: as §1

Percentage (binding percentage) ([1]; CuCl2): 74.29% | Percentage (binding percentage) ([1]; CuSO4): 82.23%
SMILES: COC(=O)CC[C@@H](C)[C@H]1CC[C@H]2[C@@H]3[C@H](O)C[C@@H]4C[C@@H](NCCCCNCc5ccccn5)CC[C@]4(C)[C@H]3CC[C@]12C [DPM-1013]
complex formation with copper [1]: formed complexes with free Cu, CuSO4; also recorded: formed complexes with free Cu, CuCl2

SMILES: [SH-].[SH-].[S]=[Mo]=[S] [tetrathiomolybdate, reference compound]
copper levels in feces (TX mice; TX mice): only a small increase | copper levels in liver and brain (TX mice; TX mice, ICP-MS): prevented accumulation of copper in liver and brain | copper levels in kidney (TX mice; wild-type and TX mice, ICP-MS): caused accumulation of copper in the kidney; also recorded: dramatically elevated copper levels in the kidney

sensitivity of PTP1B-L192A/S372P to inhibitor (PTP1B-L192A/S372P): insensitive | reversibility of inhibition of PTP1B1-321 (PTP1B1-321): reversible inhibitor | reversibility of inhibition of PTP1B1-405 (PTP1B1-405; enzyme-inhibitor complex diluted, activity recovery monitored): reversible inhibitor | time until PTP1B activity recovers (PTP1B1-405; sample diluted 100-fold): ≤ 60 min
SMILES: CC(C)[C@@H](CC[C@@H](C)[C@H]1CC[C@H]2[C@@H]3[C@H](O)C[C@H]4C[C@@H](NCCCNCCCCNCCCN)CC[C@]4(C)[C@H]3CC[C@]12C)OS(=O)(=O)O [MSI-1436, 3-N-1(spermine)-7,24-dihydroxy-5-cholestane 24-sulfate, reference compound]
complex formation with copper [1]: does not form a complex with copper

SMILES: c1ccc(CNCCCCNCc2ccccn2)nc1 [Analog 2, N^1,N^4-bis(pyridin-2-ylmethyl)butane-1,4-diamine]
complex formation with other metals [2]: bound to all the metals tested | complex formation with copper [1]: Cu(II)-bound form
